From US12653895B2, “Therapeutic conjugates” (Totus Medicines Inc., priority 2019, dated 2026)

Tested on: PI3-kinase
Test: NanoBRET screening of ARCS in transfected HEK293 cells with washout (covalent binding to and inhibition of PI3-kinase)
Format: cell-based
Conditions: NanoBRET binding assay; key headed Percent inhibition
Procedure: Human embryonic kidney 293-H (HEK 293, Gibco 293-H, #11631017) cell lines are maintained in Dulbecco's Modified Eagle Medium, high glucose, pyruvate (DMEM, Gibco, #11995065) supplemented with 10% fetal bovine serum (FBS, Gibco, #10082147) and 1× penicillin-streptomycin (100× solution, Gibco, #15140148) at 37° C. and 5% CO2 in a water-saturated incubator. Cell are trypsinized using 0.05% or 0.25% Trypsin-EDTA solution (Trypsin-EDTA, phenol red, Gibco, #25200056 (0.25%) or #25300054). Opti-MEM media supplemented with 10% fetal bovine serum (Opti-MEM I reduced serum media, no phenol red, Gibco, #11058021) is used for culturing cells overnight for NanoBRET readout experiments.
HEK293 cells are cultivated appropriately prior to assay. The medium from cell flask is removed via aspiration, washed 1× with PBS followed by aspiration, trypsinized, and cells are allowed to dissociate from the flask. Trypsin is neutralized using growth medium and cells are pelleted via centrifugation at 200×g for 5 minutes. The medium is aspirated and the cells are resuspended into a single cell suspension using Opti-MEM I supplemented with 10% FBS. The cell density is adjusted to 2×10^5/mL in Opti-MEM I supplemented with 10% FBS in a sterile, conical tube. The cells are transfected and aliquoted directly in a 96-well plate for the NanoBRET assay the next day, and therefore, the cells are cultured overnight in Opti-MEM. The cells are also transfected in bulk and dispensed into a 96-well plate to allow cells to adhere to the plate overnight, thereby enabling washout studies.
The lipid:DNA complexes are prepared as follows:
A 10 μg/mL solution of DNA is prepared in Opti-MEM without serum. This solution contains the following ratios of carrier DNA and DNA encoding NanoLuc fused to the biological target. Serial dilution steps may be warranted to accurately dilute the NanoLuc fusion DNA. Added, in order, the following reagents to a sterile polystyrene test tube: 1 mL of Opti-MEM without phenol red; 9.0 μg/mL of carrier DNA; 1.0 μg/mL of NanoLuc fusion DNA (for some targets, the amount is less). The reagents are mixed thoroughly.
30 μL of FuGENE HD is added into each mL of DNA mixture to form lipid:DNA complex. […] It is mixed by pipetting up and down 5-10 times and incubated at room temperature for 20 minutes to allow complexes to form. 1 part (e.g. 1 mL) of lipid:DNA complex is mixed with 20 parts (e.g. 20 mL) of HEK293 cells in suspension at 2×10^5/mL and mixed gently by pipetting up and down 5 times in a sterile, conical tube. Larger or smaller bulk transfections are scaled accordingly, using this ratio. […] is dispensed into a sterile, tissue-culture treated 96-well plate (20,000 cells/well), and incubated at least 16 hours to allow expression. The cells are incubated in a 37° C.+5% CO2 incubator for >16 hrs. A serially diluted inhibitor or test compound is prepared at 100× final concentration in 100% DMSO. The serially diluted inhibitor stock is prepared in PCR plates. 1 μL per well of 100× serially diluted inhibitor/test compound is added to the cells in 96-well plates that have been transiently transfected overnight and mixed by tapping the plate by hand. The plate is incubated at 37° C.+5% CO2 incubator overnight. A 1× solution of substrate mix (500× stock) and appropriate concentration of tracer is prepared in Opti-Mem. The cells are washed by setting a plate washer to the 96 well plate 5× in PBS pH 7.4 by adding 200 μL PBS each time. The cells are incubated at 37° C. for 2 hours. […], of the 1× Substrate-Tracer solution is added and the 96 well plate is gently tapped to mix. The plate on plate reader is read every hour for the next 6 hours. The binding assays of some ARCS are shown below. Compound 1-XXXII formed a covalent bond with PI3-kinase from about 5% to 20%. ARCS selected from the group consisting of Compounds 1-101, 1-102, 1-113, 1-114, 1-119, 1-120, 1-125 and 1-126 formed a covalent bond with PI3-kinase from about 80% to 100%. […]

`CC#CC(=O)CCC(=O)N1CCN(Cc2cc3c(N4CCOCC4)nc(-c4cnc(NC(=O)OC)cc4C(F)(F)F)nn3c2)CC1` [Compound 1-125] was tested, and the Binding was “+++ (>80%)”.

With `COC(=O)Nc1cc(C(F)(F)F)c(-c2nc(N3CCOCC3)c3cc(CN4CCN(C(=O)CCC(=O)C=C(C)C)CC4)cn3n2)cn1` [Compound 1-113] the Binding was “+++ (>80%)”.

In the case of `C=CC(=O)Nc1ccc(C(=O)N2CCN(Cc3cc4c(N5CCOCC5)nc(-c5cnc(NC(=O)OC)cc5C(F)(F)F)nn4c3)CC2)cc1` [Compound 1-171], the Binding is reported as “++ (50-80%)”.

In the case of `C=CC(=O)Nc1ccc(CCNCc2cc3c(N4CCOCC4)nc(-c4cnc(NC(=O)OC)cc4C(F)(F)F)nn3c2)cc1` [Compound 1-172], the Binding is reported as “++ (50-80%)”.

`COC(=O)Nc1cc(C(F)(F)F)c(-c2nc(N3CCOCC3)c3cc(CN4CCN(C(=O)CNC(=O)C=C(C)C)CC4)cn3n2)cn1` [Compound 1-114] was tested, and the Binding was “+++ (>80%)”.

In the case of `C=CC(=O)CCC(=O)N1CCN(Cc2cc3c(N4CCOCC4)nc(-c4cnc(NC(=O)OC)cc4C(F)(F)F)nn3c2)CC1` [Compound 1-101], the Binding is reported as “+++ (>80%)”.

`C=CC(=O)NCC(=O)N1CCN(Cc2cc3c(N4CCOCC4)nc(-c4cnc(NC(=O)OC)cc4C(F)(F)F)nn3c2)CC1` [Compound 1-102] was tested, and the Binding was “+++ (>80%)”.

`COC(=O)Nc1cc(C(F)(F)F)c(-c2nc(N3CCOCC3)c3cc(CN4CCN(C(=O)CCC(=O)/C=C/CN(C)C)CC4)cn3n2)cn1` [Compound 1-119] was tested, and the Binding was “+++ (>80%)”.

In the case of `CC#CC(=O)NCC(=O)N1CCN(Cc2cc3c(N4CCOCC4)nc(-c4cnc(NC(=O)OC)cc4C(F)(F)F)nn3c2)CC1` [Compound 1-126], the Binding is reported as “+++ (>80%)”.

For `COC(=O)Nc1cc(C(F)(F)F)c(-c2nc(N3CCOCC3)c3cc(CN4CCN(C(=O)CNC(=O)/C=C/CN(C)C)CC4)cn3n2)cn1` [Compound 1-120], the Binding was “+++ (>80%)”.
